Data reported in patent US20200360391A1, “Medicinal Composition for Treating Intractable Heart Disease” (Osaka University, priority 2016, published 2020).

How the values were obtained:
dogs = details: repeated oral administration in dogs; cited from earlier work
[1] = test system: spontaneous dilated cardiomyopathy (J2N-k) hamster model; experiment: Long-term (36 weeks) administration in J2N-k hamster model: cardiac function, survival rate; type: in vivo
Experimental: ONO-1301 and (K) candesartan, which is ARB, were each individually orally administered to a δ-glycan-deficient spontaneous dilated cardiomyopathy (J2N-k) hamster model twice daily repeatedly for 36 weeks, after the onset of pathological condition (20 weeks old); and changes in cardiac function and survival rates in long-term administration were compared for evaluation. Specifically, echocardiographic measurement was performed after the onset of pathological condition (20 weeks old); the animals were grouped evenly based on the ejection fractions (EF values) and the body weights (Table 15), and each test substance was individually administered for 36 weeks.
The test was performed in the same manner as described in the section “1. Investigation of effects in spontaneous dilated cardiomyopathy (J2N-k) hamster model” above.
ONO-1301 was administered at 3 mg/kg twice per day. Candesartan was administered at 3 mg/kg once per day, and only vehicle was administered at the second administration. To the control group, vehicle (0.5% CMC-Na) was administered twice daily.

rats = details: repeated oral administration in rats; cited from earlier work
[2] = test system: rat coronary artery complete ischemia model; experiment: Model of ischemia (MI) by rat coronary artery complete ligation (Tests 1 and 2): echocardiography, body weight; details: for Body weight / % FS: value of change compared with the value on Day 1 / EF: value of change compared with the value on Day 1: MI Test 1, NOAEL doses, mean ± S.D.
[3] = test system: canine rapid pacing severe dilated cardiomyopathy model; experiment: Canine rapid pacing severe dilated cardiomyopathy model, long-term repeated oral administration; type: in vivo
Experimental: (§1) A sham operation was performed for a Sham group. After the pacemaker was operated, and it was confirmed in an electrocardiogram (Lead II) that the heartbeat was linked to the pulse rate, the incision site was sutured.
(§2) The animals were grouped evenly based on the cardiac function (EF) 4 weeks after rapid pacing. […] An empty capsule was administered to the control group in the same manner.
(§3) Electrocardiography (Lead II) was performed once a week during the period of induction of pathological condition (4 weeks). After administration of the test substance, electrocardiography was performed at the time of echocardiographic measurement. Examination with a stethoscope was performed every day. Specifically, the number of beats per 10 seconds was measured every day, and if an abnormality was found in examination with a stethoscope, an electrocardiogram was measured to confirm the presence or absence of pacing errors.
(§4) The general condition of the animals (death, posture, activity, color of gums, the presence or absence of ascites, feces, etc.) and food intake were observed every day (at the time of administration in the morning and in the evening, i.e., twice). […] The survival rate was observed twice daily for 6 months from the day of the start of administration of the test substance. Moribund animals were determined to be dead when they had no reaction in at least one item of examination of pinna, auditory, and nociception reflexes.
(§5) The body weight was measured on the date of implantation of the pacemaker, the date of operation of the pacemaker, and every week thereafter.
(§6) Echocardiographic measurement was performed before the preparation of the model (Pre); Week 4 (at the time of grouping) (before administration of the test substance); and 2 weeks, 4 weeks (1 month), 2 months, 3 months, 4 months, 5 months, and 6 months (at the time of dissection) after the start of administration of the test substance, as measurement points.
(§7) The echocardiographic measurement was performed without anesthesia, using an ultrasound imaging apparatus. A sector probe (10 MHz) was placed on the chest, and the diastolic left ventricular internal dimension (LVIDd), the systolic left ventricular internal dimension (LVIDs), the interventricular septal thickness at end-diastole (IVSTd), and the left ventricular posterior wall thickness in end diastole (LVPWd) were measured at M-mode. Moreover, the ejection fraction […] and the fractional shortening […] were calculated.

[4] = as above; type: in vivo; details: dog, in vivo; after oral administration, 3 mg/kg
Experimental: as §1, §2, §3, §4, §5, §6, §7

[5] = test system: spontaneous dilated cardiomyopathy (J2N-k) hamster model; experiment: Spontaneous dilated cardiomyopathy (J2N-k) hamster model, 8-week administration from 20 weeks of age (Tests 1-3): echocardiography, body weight
Summary of the method: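 Male J2N-k δ-glycan-deficient hamsters (delivered at 18 weeks; 2-week acclimation) were dosed by oral gavage twice daily for 8 weeks in 0.5% CMC-Na (G in distilled water; 5 mL/kg) at human-equivalent doses, e.g. cilostazol 1.7 mg/kg. Camostat PLGA preparation was given 10 mg/kg s.c. every 4 weeks. Echocardiographic EF/FS changes from baseline were assessed at 4 and 8 weeks versus vehicle.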

[6] = Test 1, p.o. b.i.d., NOAEL-based dose

O=C(O)COc1cccc2c1CCC=C2CCO/N=C(\c1ccccc1)c1cccnc1 [Compound A, (E)-[5-[2-[1-phenyl-1-(3-pyridyl)methylideneaminooxy]ethyl]-7,8-dihydronaphthalen-1-yloxy]acetic acid]
No-observed-adverse-effect level (dogs): 3 mg/kg
Effect in long-term administration compared with candesartan [1]: effect superior to that of candesartan
EF compared with control group ([1]; 3.0 mg/kg): significant improvement effect
FS% compared with control group ([1]; 3.0 mg/kg): Significantly higher values
No-observed-adverse-effect level (rats): 3 mg/kg
Action on left ventricular systolic function ([2]; MI Test 1, 28-day repeated oral administration b.i.d., NOAEL-based doses): suppression action on the deterioration of left ventricular systolic function
Body weight ([2]; 1 Day (grouping)): 231.4 ± 4.9 g
% FS: value of change compared with the value on Day 1 ([2]; 7 Day): 1%
Body weight ([2]; 7 Day): 237.8 ± 15.0 g
EF: value of change compared with the value on Day 1 ([2]; 7 Day): 1%
% FS: value of change compared with the value on Day 1 ([2]; 14 Day): 0%
Body weight ([2]; 14 Day): 257.1 ± 20.7 g
EF: value of change compared with the value on Day 1 ([2]; 14 Day): 0%
Body weight ([2]; 21 Day): 277.1 ± 17.3 g
% FS: value of change compared with the value on Day 1 ([2]; 29 Day): -3%
Body weight ([2]; 29 Day): 293.6 ± 18.9 g
EF: value of change compared with the value on Day 1 ([2]; 29 Day): -6%
Number of animals alive 26 weeks after start of administration ([3]; 3 mg/kg p.o. twice daily): 1/6
Time after start of administration at which death was first observed ([3]; 3 mg/kg p.o. twice daily): 44 days
Survival rate (Kaplan-Meier curve) compared with control ([3]; 3 mg/kg p.o. twice daily, 26 weeks): significant prolonging effect on the survival rate
Amount of change (Δ) in EF compared with control ([3]; 2 weeks and 4 weeks after start of administration): significantly higher
Body weight gain compared with control ([3]; 6 weeks and 8 weeks after start of administration): suppressed
Effect on heart rate in echocardiography at Tmax ([3]; oral 3 mg/kg): no effect on the heart rate
Tmax [4]: 1.5 to 2.5 h
Body weight 0 W ([5]; Test 1, at grouping): 112.5 g
LVIDd 4 W ([5]; Test 1, p.o. b.i.d.): 6.9 mm
LVIDd 8 W ([5]; Test 1, p.o. b.i.d.): 7.6 mm
LVIDs 4 W ([5]; Test 1, p.o. b.i.d.): 5.6 mm
LVIDs 8 W ([5]; Test 1, p.o. b.i.d.): 6.2 mm
Body weight 4 W [5, 6]: 120.2 g
Body weight 8 W [5, 6]: 120.6 g
